The term inhibition denotes the change of the read-out against control, counted positive when it falls. Usually IC50 stands for the concentration that gives 50% inhibition.

This note sets out measurements from paper PMC7524750, “Dual COX and 5-LOX inhibition by clerodane diterpenes from seeds of Polyalthia longifolia (Sonn.) Thwaites” (Scientific Reports, 2020).

Where two headings read alike, the source gives them in different places.

Test [1] has as its target T1, 5-LOX (human recombinant) (Homo sapiens, UniProt P09917).
T1 construct: purchased Sigma Aldrich 437996
T1 sequence (P09917 1-674): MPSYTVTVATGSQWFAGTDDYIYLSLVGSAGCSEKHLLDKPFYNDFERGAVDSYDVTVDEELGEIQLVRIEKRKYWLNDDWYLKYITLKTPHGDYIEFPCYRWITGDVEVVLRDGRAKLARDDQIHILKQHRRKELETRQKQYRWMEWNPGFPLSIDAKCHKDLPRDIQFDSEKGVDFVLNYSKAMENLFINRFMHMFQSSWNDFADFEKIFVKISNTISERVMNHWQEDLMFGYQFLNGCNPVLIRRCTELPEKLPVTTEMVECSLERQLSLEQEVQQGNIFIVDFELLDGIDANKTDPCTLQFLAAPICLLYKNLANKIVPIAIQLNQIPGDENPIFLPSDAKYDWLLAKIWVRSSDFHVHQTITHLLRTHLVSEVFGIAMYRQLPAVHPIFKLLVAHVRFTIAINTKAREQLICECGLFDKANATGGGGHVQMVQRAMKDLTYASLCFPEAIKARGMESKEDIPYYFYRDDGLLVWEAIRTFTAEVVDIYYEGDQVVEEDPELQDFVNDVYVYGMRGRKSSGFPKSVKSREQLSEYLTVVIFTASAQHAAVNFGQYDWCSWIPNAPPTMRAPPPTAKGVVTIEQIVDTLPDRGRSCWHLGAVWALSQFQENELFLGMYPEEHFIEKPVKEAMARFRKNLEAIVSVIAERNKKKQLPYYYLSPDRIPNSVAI
Briefly: 5-lipoxygenase inhibitory assay (5-LOX assay kit). Type of test: biochemical. The following applies: mean ± SD, n=3; for inhibition at 2.5 µg/mL / inhibition at 5 µg/mL / inhibition at 7.5 µg/mL / inhibition at 10 µg/mL: read-out: Percentage inhibition 5-LOX. The protocol: To 90 µl of 5-LOX enzyme solution added different test sample concentrations, 100 µl of de chromogen, and finally added 10 µl of the substrate (arachidonic acid) and gently shake or 10 min and absorbance was measured at 490 nm against the blank. The % inhibition was deliberated with the absorbance values by which IC50 values were calculated by linear regression.

A further test addresses T2, COX-1 (Ovis aries, UniProt P05979).
T2 construct: purchased Cayman 560131
T2 sequence (P05979 25-600): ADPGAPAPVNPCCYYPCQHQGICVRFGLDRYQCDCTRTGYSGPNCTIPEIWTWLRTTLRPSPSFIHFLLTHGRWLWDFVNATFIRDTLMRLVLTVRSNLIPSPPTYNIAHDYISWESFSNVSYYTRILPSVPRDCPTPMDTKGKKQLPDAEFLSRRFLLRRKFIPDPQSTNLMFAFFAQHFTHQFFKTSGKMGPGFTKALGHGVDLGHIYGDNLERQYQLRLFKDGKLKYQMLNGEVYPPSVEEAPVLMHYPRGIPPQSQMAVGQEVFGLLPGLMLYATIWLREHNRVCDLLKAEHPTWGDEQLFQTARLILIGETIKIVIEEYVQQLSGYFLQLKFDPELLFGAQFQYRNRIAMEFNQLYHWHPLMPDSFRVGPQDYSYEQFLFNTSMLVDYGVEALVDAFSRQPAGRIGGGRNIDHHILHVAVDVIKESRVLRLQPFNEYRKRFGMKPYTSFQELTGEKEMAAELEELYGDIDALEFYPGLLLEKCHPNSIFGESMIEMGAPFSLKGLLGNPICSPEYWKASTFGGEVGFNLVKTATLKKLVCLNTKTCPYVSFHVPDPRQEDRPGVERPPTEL
The test is described as follows: Cyclooxygenase COX-1 inhibitory assay (Cayman COX inhibitor assay kit). Type of test: biochemical, ovine. The following applies: mean ± SD, n=3; for inhibition at 2.5 µg/mL / inhibition at 5 µg/mL / inhibition at 7.5 µg/mL / inhibition at 10 µg/mL: read-out: Percentage inhibition COX1. The protocol:
(§1) To 10 µl of either COX1 or COX2 added 0.1 M Tris–HCl buffer (960 µl) and different known concentrations of test samples and incubated at 37 °C for 10 min. Later 10 µl of 100 µM arachidonic acid, after 2 min 1 M HCl of 50 µl and Ellman’s reagent, were added. The absorbance was measured spectrophotometrically at 410 nm against the blank. The percentage of inhibition was deliberated with the absorbance values, and IC50 values were calculated by linear regression.

A further test addresses T3, COX-2 (Homo sapiens, UniProt P35354).
T3 construct: purchased Cayman 560131
T3 sequence (P35354 18-604): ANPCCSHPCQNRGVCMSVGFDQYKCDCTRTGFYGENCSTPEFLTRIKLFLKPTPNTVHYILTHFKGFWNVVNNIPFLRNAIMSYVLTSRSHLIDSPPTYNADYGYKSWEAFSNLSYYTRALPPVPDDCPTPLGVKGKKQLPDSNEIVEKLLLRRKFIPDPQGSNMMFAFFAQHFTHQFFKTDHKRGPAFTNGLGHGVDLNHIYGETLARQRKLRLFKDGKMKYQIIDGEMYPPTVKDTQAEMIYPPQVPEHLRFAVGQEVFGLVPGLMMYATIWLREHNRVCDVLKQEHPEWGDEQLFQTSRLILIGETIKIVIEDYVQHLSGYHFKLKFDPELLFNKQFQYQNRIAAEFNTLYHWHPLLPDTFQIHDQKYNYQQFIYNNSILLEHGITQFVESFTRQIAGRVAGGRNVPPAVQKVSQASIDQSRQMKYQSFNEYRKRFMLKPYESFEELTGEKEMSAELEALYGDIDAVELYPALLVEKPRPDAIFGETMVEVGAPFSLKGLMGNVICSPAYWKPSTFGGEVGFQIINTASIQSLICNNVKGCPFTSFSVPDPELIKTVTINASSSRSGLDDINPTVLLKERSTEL
The test is described as follows: Cyclooxygenase COX-2 inhibitory assay (Cayman COX inhibitor assay kit). In kind it is biochemical. To be noted: mean ± SD, n=3; for inhibition at 2.5 µg/mL / inhibition at 5 µg/mL / inhibition at 7.5 µg/mL / inhibition at 10 µg/mL: read-out: Percentage inhibition COX2. The protocol:
as §1

Where [2] appears, read: IC50 5-LOX (concentration required for 50% inhibition), Fig. 2.
The mark [3] stands for this setting: linear regression, read-out: IC50 values 5-LOX (converted).
[4] abbreviates: linear regression, read-out: IC50 values COX1 (converted).
[5] abbreviates: linear regression, read-out: IC50 values COX2 (converted).

Consider `O=C(O)Cc1ccccc1Nc1c(Cl)cccc1Cl` [Diclofenac, reference compound], for which, in test [1], the inhibition at 2.5 µg/mL was determined as 12.4 ± 1.49%, the inhibition at 5 µg/mL is 23.1 ± 4.16%, the inhibition at 7.5 µg/mL came to 42.8 ± 1.82% and the inhibition at 10 µg/mL was determined as 64.4 ± 0.72%.

For the compound `C=C1C(O)CCC2C1(C)CCC(C)C2(C)CCC1=CC(=O)OC1O` (stereo not drawn) [Compound 4, 3α,16α-dihydroxy-cleroda-4(18),13(14)Z-dien-15,16-olide], the inhibition at 2.5 µg/mL in test [1] was found to be 23.2 ± 2.28%; on COX-1, 40.8 ± 0.79%; at COX-2, 36.8 ± 2.52%. The inhibition at 5 µg/mL in test [1] amounted to 44.3 ± 1.68%; at COX-1, 61.1 ± 0.69%; on COX-2, 55.21 ± 0.43%. Also, the inhibition at 7.5 µg/mL in test [1] was 55.4 ± 0.65%; at COX-1, 72.3 ± 3.77%; on COX-2, 67.1 ± 2.47%. Further, the inhibition at 10 µg/mL in test [1] turned out to be 67.2 ± 2.67%; at COX-1, 79.5 ± 2.53%; at COX-2, 75.1 ± 2.73%. Moreover, the IC50 in test [1] (setting [2]) was 16.9 ± 0.56 µM; in test [1] (setting [3]), 17 µM; at COX-1 (Fig. 2, read-out: IC50 COX-1), 10.8 ± 0.17 µM; on COX-1 (setting [4]) it was 10.9 µM; at COX-2 (Fig. 2, read-out: IC50 COX-2), 12.8 ± 0.21 µM; at COX-2 (setting [5]), 12.8 µM.

For the compound `CC1=CCCC2C1(C)CCC(C)C2(C)CCC1=CC(=O)OC1O` (stereo not drawn) [Compound 5, 16α-hydroxy-cleroda-3,13(14)Z-dien-15,16-olide], the inhibition at 2.5 µg/mL in test [1] is 30 ± 1.04%; at COX-1, 42.3 ± 2.05%; on COX-2, 46.6 ± 0.9%. The inhibition at 5 µg/mL in test [1] is 54.1 ± 1.1%; at COX-1, 79.5 ± 1.01%; on COX-2, 57.2 ± 1.57%. The inhibition at 7.5 µg/mL in test [1] stood at 67.2 ± 4.61%; on COX-1, 86.5 ± 1.27%; on COX-2, 69.3 ± 3.66%. Moreover, the inhibition at 10 µg/mL in test [1] came to 75.8 ± 2.97%; at COX-1 it was 92.9 ± 2.46%; at COX-2, 79.4 ± 4.39%. Further, the IC50 is 14.4 ± 0.32 µM in test [1] (setting [2]); 14.4 µM in test [1] (setting [3]); 9.46 ± 0.33 µM on COX-1 (Fig. 2, read-out: IC50 COX-1); 9.45 µM at COX-1 (setting [4]); 10.3 ± 0.26 µM at COX-2 (Fig. 2, read-out: IC50 COX-2); 10.3 µM on COX-2 (setting [5]).

On to `CC1=CCCC2C1(C)CCC(C)C2(C)CCC(=CC(=O)O)CO` (stereo not shown) [Compound 2, 16-hydroxy-cleroda-3,13-dien-15-oic acid], for which the figures for the inhibition at 2.5 µg/mL (in test [1]; on COX-1; on COX-2) were 12.5 ± 1.45%, 16.3 ± 3% and 34.5 ± 2.11%, respectively. Also, the inhibition at 5 µg/mL in test [1] was 24.5 ± 1.92%; at COX-1, 28.3 ± 3.1%; on COX-2 it was 59.2 ± 0.77%. Moreover, the figures for the inhibition at 7.5 µg/mL (in test [1]; on COX-1; at COX-2) were 40 ± 4.41%, 42.5 ± 1.68% and 77.4 ± 0.9%, respectively. The inhibition at 10 µg/mL in test [1] turned out to be 51.2 ± 1.35%; on COX-1, 50.9 ± 0.6%; at COX-2, 85 ± 1.17%. Besides, the IC50 was 30.5 ± 0.53 µM in test [1] (setting [2]); 30.5 µM in test [1] (setting [3]); 30.44 ± 0.3 µM at COX-1 (Fig. 2, read-out: IC50 COX-1); 30.4 µM at COX-1 (setting [4]); 12.7 ± 0.34 µM at COX-2 (Fig. 2, read-out: IC50 COX-2); 12.7 µM at COX-2 (setting [5]).

For the compound `C=C1CCCC2C1(C)CCC(C)C2(C)CCC1=CC(=O)OC1O` (stereo not shown) [Compound 3, 16-hydroxy-cleroda-4(18),13-dien-16,15-olide], the inhibition at 2.5 µg/mL in test [1] was found to be 34.7 ± 1.47%; at COX-1, 38.1 ± 0.72%; on COX-2, 48.8 ± 0.96%. The values for the inhibition at 5 µg/mL (in test [1]; on COX-1; on COX-2) were 59.3 ± 0.66%, 61.5 ± 1.84% and 63.2 ± 1.41%, respectively. Also, the results for the inhibition at 7.5 µg/mL (in test [1]; on COX-1; at COX-2) were 77.5 ± 0.92%, 68.3 ± 2.99% and 73.3 ± 1.15%, respectively. Besides, the inhibition at 10 µg/mL is 85 ± 1.05% in test [1], 83.9 ± 2.27% on COX-1 and 82.97 ± 0.44% at COX-2. Also, the IC50 was 12.7 ± 0.21 µM in test [1] (setting [2]); 12.7 µM in test [1] (setting [3]); 11.8 ± 0.19 µM on COX-1 (Fig. 2, read-out: IC50 COX-1); 11.8 µM at COX-1 (setting [4]); 8.49 ± 0.55 µM on COX-2 (Fig. 2, read-out: IC50 COX-2); 8.51 µM at COX-2 (setting [5]).

In the case of `CC1=CCCC2C1(C)CCC(C)C2(C)CCC(C=O)=CC(=O)O` (stereo not shown) [Compound 1, 16-oxo-cleroda-3,13(14)E-dien-15-oic acid], the results for the inhibition at 2.5 µg/mL (in test [1]; at COX-1; at COX-2) were 13.4 ± 0.72%, 21.8 ± 1.55% and 10.7 ± 2.91%, respectively. In addition, the inhibition at 5 µg/mL in test [1] is 25.7 ± 2.74%; at COX-1, 40.3 ± 3.77%; at COX-2 it was 23.4 ± 3.07%. Further, the inhibition at 7.5 µg/mL worked out at 41.1 ± 1.43% in test [1], 47.1 ± 2.71% at COX-1 and 42.8 ± 0.72% at COX-2. The values for the inhibition at 10 µg/mL (in test [1]; on COX-1; at COX-2) were 65.4 ± 0.93%, 60.4 ± 4.48% and 62.9 ± 3.84%, respectively. Further, the half-maximal inhibitory concentration (IC50) was 26.4 ± 0.39 µM in test [1] (setting [2]); 26.4 µM in test [1] (setting [3]); 25.1 ± 0.99 µM at COX-1 (Fig. 2, read-out: IC50 COX-1); 25.1 µM at COX-1 (setting [4]); 26.4 ± 0.45 µM on COX-2 (Fig. 2, read-out: IC50 COX-2); 26.4 µM on COX-2 (setting [5]).
